Test system: clonal CB1 zebrafish
Assay: Tumor induction by continuous immersion in DEN solution
Format: in vivo
Details: 100 ppm DEN immersion for 8 weeks
Description: Tumor induction. Sixty-five 2.5-month-old fish from the clonal CB1 line were used for tumor induction by continuous immersion in N-nitrosodiethylamine (DEN) solution (100 ppm) during the 8 weeks. During DEN, exposure fish were maintained in 20-L acrylic tanks equipped with a mechanical filter and an automatic heater. The filters were cleaned twice weekly. The complete exchange of water containing the carcinogen was done every 2 weeks. The water temperature was maintained at 26±0.5° C. Following completion of DEN exposure the fish were transferred to a 20-L system tank and remained under observation for up to 9 months.
The grossly visible tumors began to emerge in fish 3 to 7 months after the beginning of exposure to DEN. Four spontaneous tumors diagnosed as acinar cell carcinomas of the pancreas were detected in 10.5- to 18-month-old female CB1 fish (See, e.g., FIG. 1G).

CCN(CC)N=O [DEN, N-nitrosodiethylamine]
emergence of grossly visible tumors after the beginning of exposure (CB1 fish): 3 to 7 months
primary tumors localized in the abdominal area (sixty-five 2.5-month-old CB1 fish, observed up to 9 months): 35
